From EP1075186B1, “METHOD OF HSV PROPHYLAXIS” (The Children's Hospital Research Foundation, priority 1998, dated 1999) come the findings set out here.

The subject of data set [1] is VZV. In words: In vitro assay with VZV on HFF cell monolayers. It is filed as cell-based. The settings on record: Example 2, Table 17, 0.1 mg/ml, footnote: this toxicity observation is questionable. As to the method: VZV was grown to a CPE level […] of 3-4 + on HFF cell monolayers. The VZV was scraped from the flask, centrifuged and the cell pellet was resuspended in 10 ml of complete medium. 100 to 200 µl of the VZV cell associated inoculum was inoculated onto confluent HFF cell monolayers by absorption for 60 minutes at 37°C. After absorption of the virus, the inoculum was aspirated from the cell monolayers.
The VZV-infected monolayers were rehydrated with medium containing the appropriate concentrations of compounds to be tested. All monolayers were incubated at 37°C. Development of VZV cytopathology was monitored daily for 7 days by inverted light microscopy. Titers were calculated by multiple regression analysis.

In data set [2] the test system is human foreskin fibroblast (HFF) cell monolayers. In words: Toxicity effects controls (sham-inoculated compound treated HFF monolayers). It counts as cell-based. The text has this:
Sham-incolulated, non-treated HFF cell monolayers were included along with the drug-treated monolayers as "cell monolayer controls". • 1. HSV-1 inoculated, non-compound treated HFF monolayers were included as "positive controls"; and • 2.
In the tables, the symbols have the meaning indicated: + = toxic; - = no toxicity; +/- = mild toxicity; ND = not done; T = toxicity effects interfered with CPE rating; CPE = cytopathic effect.

The mark [3] stands for this setting: Experiment 5, Table 12, 48 Hours Post Incubation, 0.001 mg/ml.
Where [4] appears, read: Experiment 5, Table 12, 48 Hours Post Incubation, 0.01 mg/ml.
Setting [5] is: Experiment 5, Table 12, 48 Hours Post Incubation, 1 mg/ml.

Molecules are shown by their SMILES.

In the case of `CC1=CC(C)=[N+]2CC[N+]3=C(C)C=C(C)[O][Co-3]23([NH2])([NH3+])[O]1` [Compound 23, reference compound], the “VIRUCIDAL EFFICACY 7 Days Post Inoculation Efficacy” value in data set [1] is “T?”. Also, the “TOXICITY EFFECTS CONTROLS” value in data set [2] (Experiment 2, Table 4, 0.001 mg/ml, 24 h PI) is “-”; in data set [2] (Experiment 2, Table 4, 0.001 mg/ml, 48 h PI), “-”; in data set [2] (Experiment 2, Table 4, 0.01 mg/ml, 24 h PI) it was “-”; in data set [2] (Experiment 2, Table 4, 0.01 mg/ml, 48 h PI) it was “-”; in data set [2] (Experiment 2, Table 4, 0.1 mg/ml, 24 h PI), “-”; in data set [2] (Experiment 2, Table 4, 0.1 mg/ml, 48 h PI) it was “-”. Also, the “TOXICITY EFFECTS CONTROLS” value in data set [2] (Experiment 2, Table 4, 1 mg/ml, 24 h PI) was “+/-”; in data set [2] (Experiment 2, Table 4, 1 mg/ml, 48 h PI) it was “+/-”; in data set [2] (setting [3]), “-”; in data set [2] (setting [4]), “-”; in data set [2] (Experiment 5, Table 12, 48 Hours Post Incubation, 0.1 mg/ml), “-”; in data set [2] (Experiment 5, Table 12, 48 Hours Post Incubation, 0.5 mg/ml) it was “-”. In addition, the “TOXICITY EFFECTS CONTROLS” value in data set [2] (setting [5]) was “-”; in data set [2] (Experiment 5, Table 12, 48 Hours Post Incubation, 2 mg/ml) it was “+/-”; in data set [2] (Experiment 5, Table 12, 48 Hours Post Incubation, 5 mg/ml), “+/-”.
As to `CC1=C(Cl)C(C)=[N+]2CC[N+]3=C(C)C(Cl)=C(C)[O][Co-3]23([n+]2cc[nH]c2)([n+]2cc[nH]c2)[O]1` [Compound 93], in data set [1], the “VIRUCIDAL EFFICACY 7 Days Post Inoculation Efficacy” value is on record as “T?”. Also, the “TOXICITY EFFECTS CONTROLS” value in data set [2] (Experiment 3, Table 7, 0.001 mg/ml, 24 hrs post incubation) is recorded as “-”; in data set [2] (Experiment 3, Table 7, 0.001 mg/ml, 48 hrs post incubation) it was “-”; in data set [2] (Experiment 3, Table 7, 0.01 mg/ml, 24 hrs post incubation), “-”; in data set [2] (Experiment 3, Table 7, 0.01 mg/ml, 48 hrs post incubation), “-”; in data set [2] (Experiment 3, Table 7, 0.1 mg/ml, 24 hrs post incubation), “-”; in data set [2] (Experiment 3, Table 7, 0.1 mg/ml, 48 hrs post incubation) it was “+/-”. The “TOXICITY EFFECTS CONTROLS” value in data set [2] (Experiment 3, Table 7, 0.5 mg/ml, 24 hrs post incubation) is “-”; in data set [2] (Experiment 3, Table 7, 0.5 mg/ml, 48 hrs post incubation) it was “-”; in data set [2] (Experiment 3, Table 7, 1 mg/ml, 24 hrs post incubation), “-”; in data set [2] (Experiment 3, Table 7, 1 mg/ml, 48 hrs post incubation), “-”; in data set [2] (Experiment 3, Table 7, 5 mg/ml, 24 hrs post incubation), “+/-”; in data set [2] (Experiment 3, Table 7, 5 mg/ml, 48 hrs post incubation), “+/-”. Also, the figures for the “TOXICITY EFFECTS CONTROLS” value in data set [2] (setting [3]), in data set [2] (setting [4]) and in data set [2] (setting [5]) were “-”, “-” and “+/-”, respectively. Besides, in data set [2] (Experiment 5, cell rounding, detaching from the monolayer, increased granularity, loss of normal morphology), the toxicity result was “more pronounced in the 0.5 and the 0.1 mg/ml concentrations”.
